Source: patent publication US7414048B2, “4,5-dihydro-isoxazole derivatives and their pharmaceutical use” (Janssen Pharmaceutica, N.V., priority 1998, dated 2008)

Test system: T cell blast formation in human blood
Test: In vitro inhibition of T cell blast formation in human blood (human whole blood blast formation, PHA stimulated, flow cytometry)
Type: cell-based
Settings: 72 hours, mean where multiple measurements
Description: Cells are collected after a 72 hours culture period at 37° C., supernatant is removed by centrifugation and red blood cells are lysed by a hypotonic buffer. The remaining white blood cells are collected in PBS containing propidium iodide. The blast formation is analyzed using a benchtop flow cytometer (Cytoron, Ortho) equipped with an argon-ion laser. […] When multiple measurements were performed, a mean value was calculated for the percentage inhibition of T cell blast formation.

[1] = Test Dose 1 × 10^−6 (unit not given)
[2] = Test Dose 1 × 10^−5 (unit not given)
[3] = Test Dose 3 × 10^−7 (unit not given)
[4] = Test Dose 1 × 10^−7 (unit not given)

SMILES: O=C(Nc1ccc(C(c2ccccc2)N2CCOCC2)cc1)C1CC(c2cccnc2)=NO1 (centres unmarked) [Compound 221]
- % Inhibition of T cell blast formation [1]: 63%

SMILES: O=C(NCCc1ccccc1)c1ccc(NC(=O)C2CC(c3cccnc3)=NO2)cc1 (centres unmarked) [Compound 258]
- % Inhibition of T cell blast formation [1]: 59%

SMILES: CC(C)(NC(=O)c1ccc(NC(=O)C2CC(c3cccnc3)=NO2)cc1)c1ccccc1 (centres unmarked) [Compound 259]
- % Inhibition of T cell blast formation [1]: 51%

SMILES: O=C(Nc1cccnc1)c1ccc(NC(=O)C2CC(c3cccnc3)=NO2)cc1 (centres unmarked) [Compound 263]
- % Inhibition of T cell blast formation [1]: 59%

SMILES: O=C(Nc1cccc2ccccc12)c1ccc(NC(=O)C2CC(c3cccnc3)=NO2)cc1 (centres unmarked) [Compound 266]
- % Inhibition of T cell blast formation [2]: 85%

SMILES: O=C(NCCc1ccco1)c1ccc(NC(=O)C2CC(c3cccnc3)=NO2)cc1 (centres unmarked) [Compound 268]
- % Inhibition of T cell blast formation [1]: 58%

SMILES: O=C(NCc1ccccc1Br)c1ccc(NC(=O)C2CC(c3cccnc3)=NO2)cc1 (centres unmarked) [Compound 269]
- % Inhibition of T cell blast formation [1]: 67%

SMILES: O=C(NCc1ccc(F)cc1)c1ccc(NC(=O)C2CC(c3cccnc3)=NO2)cc1 (centres unmarked) [Compound 270]
- % Inhibition of T cell blast formation [1]: 71%

SMILES: COc1cccc(CNC(=O)c2ccc(NC(=O)C3CC(c4cccnc4)=NO3)cc2)c1 (centres unmarked) [Compound 272]
- % Inhibition of T cell blast formation [1]: 67%

SMILES: Cc1ccc(CNC(=O)c2ccc(NC(=O)C3CC(c4cccnc4)=NO3)cc2)cc1 (centres unmarked) [Compound 273]
- % Inhibition of T cell blast formation [1]: 62%

SMILES: COc1ccc(CNC(=O)c2ccc(NC(=O)C3CC(c4cccnc4)=NO3)cc2)c(OC)c1 (centres unmarked) [Compound 274]
- % Inhibition of T cell blast formation [1]: 71%

SMILES: O=C(NCc1c(F)cccc1F)c1ccc(NC(=O)C2CC(c3cccnc3)=NO2)cc1 (centres unmarked) [Compound 279]
- % Inhibition of T cell blast formation [1]: 74%

SMILES: COc1cc(CNC(=O)c2ccc(NC(=O)C3CC(c4cccnc4)=NO3)cc2)cc(OC)c1OC (centres unmarked) [Compound 281]
- % Inhibition of T cell blast formation [1]: 74%

SMILES: COc1ccccc1CNC(=O)c1ccc(NC(=O)C2CC(c3cccnc3)=NO2)cc1 (centres unmarked) [Compound 285]
- % Inhibition of T cell blast formation [1]: 72%

SMILES: CN(C)c1ccc(CNC(=O)c2ccc(NC(=O)C3CC(c4cccnc4)=NO3)cc2)cc1 (centres unmarked) [Compound 286]
- % Inhibition of T cell blast formation [3]: 49%

SMILES: O=C(NCc1cccc(C(F)(F)F)c1)c1ccc(NC(=O)C2CC(c3cccnc3)=NO2)cc1 (centres unmarked) [Compound 288]
- % Inhibition of T cell blast formation [1]: 53%

SMILES: O=C(NCc1cccs1)c1ccc(NC(=O)C2CC(c3cccnc3)=NO2)cc1 (centres unmarked) [Compound 289]
- % Inhibition of T cell blast formation [1]: 64%

SMILES: COc1ccc(CNC(=O)c2ccc(NC(=O)C3CC(c4cccnc4)=NO3)cc2)cc1 (centres unmarked) [Compound 290]
- % Inhibition of T cell blast formation [1]: 67%

SMILES: O=C(NCc1cnc2ccccc2c1)c1ccc(NC(=O)C2CC(c3cccnc3)=NO2)cc1 (centres unmarked) [Compound 291]
- % Inhibition of T cell blast formation [1]: 78%

SMILES: Nc1cccc(F)c1CNC(=O)c1ccc(NC(=O)C2CC(c3cccnc3)=NO2)cc1 (centres unmarked) [Compound 292]
- % Inhibition of T cell blast formation [3]: 40%

SMILES: O=C(NCc1ccc2c(c1)OCO2)c1ccc(NC(=O)C2CC(c3cccnc3)=NO2)cc1 (centres unmarked) [Compound 295]
- % Inhibition of T cell blast formation [3]: 35%

SMILES: CON=C(c1ccccc1)c1ccc(NC(=O)C2CC(c3cccnc3)=NO2)cc1 (centres unmarked) [Compound 303]
- % Inhibition of T cell blast formation [1]: 78%

SMILES: O=C(Nc1ccc(C(=O)N2CCC(O)(Cc3ccccc3)CC2)cc1)C1CC(c2cccnc2)=NO1 (centres unmarked) [Compound 304]
- % Inhibition of T cell blast formation [3]: 36%

SMILES: O=C(Nc1ccc(C(=O)N2CCC(c3ccccc3)CC2)cc1)C1CC(c2cccnc2)=NO1 (centres unmarked) [Compound 307]
- % Inhibition of T cell blast formation [3]: 41%

SMILES: NC(=O)C(c1ccc(Cl)cc1)c1ccc(NC(=O)C2CC(c3cccnc3)=NO2)cc1Cl (centres unmarked) [Compound 309]
- % Inhibition of T cell blast formation [1]: 92%

SMILES: NC(=O)C(c1ccc(Cl)cc1Cl)c1ccc(NC(=O)C2CC(c3cccnc3)=NO2)cc1Cl (centres unmarked) [Compound 310]
- % Inhibition of T cell blast formation [3]: 64%

SMILES: NC(=O)C(c1ccccc1)c1ccc(NC(=O)C2CC(c3cccnc3)=NO2)cc1 (centres unmarked) [Compound 312]
- % Inhibition of T cell blast formation [1]: 93%

SMILES: CN(C)Cc1csc(NC(=O)C(c2ccccc2)c2ccc(NC(=O)C3CC(c4cccnc4)=NO3)cc2)n1 (centres unmarked) [Compound 314]
- % Inhibition of T cell blast formation [3]: 58%

SMILES: O=C(Nc1ccc(C(C(=O)NCCN2CCOCC2)c2ccccc2)cc1)C1CC(c2cccnc2)=NO1 (centres unmarked) [Compound 325]
- % Inhibition of T cell blast formation [3]: 43%

SMILES: O=C(c1ccccc1)c1ccc(NC(=O)C2CC(c3cccnc3)=NO2)nc1 (centres unmarked) [Compound 371]
- % Inhibition of T cell blast formation [1]: 62%

SMILES: O=C(Nc1ccc(Sc2ccccc2)cc1)C1CC(c2cccnc2)=NO1 (centres unmarked) [Compound 374]
- % Inhibition of T cell blast formation [2]: 85%

SMILES: O=C(Nc1ccc(Nc2ccc(S(=O)(=O)C(F)(F)F)cc2)cc1)C1CC(c2cccnc2)=NO1 (centres unmarked) [Compound 376]
- % Inhibition of T cell blast formation [3]: 69%

SMILES: O=C(Nc1ccc(Nc2ccccc2)cc1)C1CC(c2cccnc2)=NO1 (centres unmarked) [Compound 377]
- % Inhibition of T cell blast formation [1]: 85%

SMILES: O=C(Nc1ccc(C(=O)N2CCN(c3ccccc3)CC2)cc1)C1CC(c2cccnc2)=NO1 (centres unmarked) [Compound 379]
- % Inhibition of T cell blast formation [3]: 51%

SMILES: O=C(CCc1ccccc1)c1ccc(NC(=O)C2CC(c3cccnc3)=NO2)cc1 (centres unmarked) [Compound 380]
- % Inhibition of T cell blast formation [1]: 67%

SMILES: O=C(c1ccc(NC(=O)C2CC(c3cccnc3)=NO2)cc1)c1ccc(OC(F)(F)F)cc1 (centres unmarked) [Compound 384]
- % Inhibition of T cell blast formation [3]: 68%

SMILES: O=C(c1ccc(NC(=O)C2CC(c3cccnc3)=NO2)cc1)c1c(F)cccc1F (centres unmarked) [Compound 385]
- % Inhibition of T cell blast formation [3]: 69%

SMILES: Cn1cc(C(=O)c2ccc(NC(=O)C3CC(c4cccnc4)=NO3)cc2)cn1 (centres unmarked) [Compound 386]
- % Inhibition of T cell blast formation [3]: 38%

SMILES: O=C(c1ccc(NC(=O)C2CC(c3cccnc3)=NO2)cc1)c1cccnc1 (centres unmarked) [Compound 387]
- % Inhibition of T cell blast formation [3]: 78%

SMILES: O=C(c1ccncc1)c1ccc(NC(=O)C2CC(c3cccnc3)=NO2)cc1 (centres unmarked) [Compound 388]
- % Inhibition of T cell blast formation [4]: 74%

SMILES: O=C(c1ccc(NC(=O)C2CC(c3cccnc3)=NO2)cc1)c1ccc2c(c1)OCO2 (centres unmarked) [Compound 389]
- % Inhibition of T cell blast formation [3]: 59%

SMILES: COc1ccccc1C(=O)c1ccc(NC(=O)C2CC(c3cccnc3)=NO2)cc1 (centres unmarked) [Compound 390]
- % Inhibition of T cell blast formation [1]: 85%

SMILES: O=C(c1ccc(NC(=O)C2CC(c3cccnc3)=NO2)cc1)c1ccc2ccccc2n1 (centres unmarked) [Compound 392]
- % Inhibition of T cell blast formation [1]: 80%

SMILES: O=C(c1ccc(NC(=O)C2CC(c3cccnc3)=NO2)cc1)c1cnc2ccccc2c1 (centres unmarked) [Compound 393]
- % Inhibition of T cell blast formation [1]: 69%

SMILES: COc1ccc(OC)c(C(=O)c2ccc(NC(=O)C3CC(c4cccnc4)=NO3)cc2)c1 (centres unmarked) [Compound 395]
- % Inhibition of T cell blast formation [1]: 77%

SMILES: COc1cc(C(=O)c2ccc(NC(=O)C3CC(c4cccnc4)=NO3)cc2)cc(OC)c1OC (centres unmarked) [Compound 396]
- % Inhibition of T cell blast formation [1]: 65%

SMILES: COc1cccc(OC)c1C(=O)c1ccc(NC(=O)C2CC(c3cccnc3)=NO2)cc1 (centres unmarked) [Compound 397]
- % Inhibition of T cell blast formation [1]: 82%

SMILES: O=C(c1ccc(NC(=O)C2CC(c3cccnc3)=NO2)cc1)c1ccc(F)cc1F (centres unmarked) [Compound 398]
- % Inhibition of T cell blast formation [1]: 87%

SMILES: O=C(Nc1ccc(C(O)c2ccncc2)cc1)C1CC(c2cccnc2)=NO1 (centres unmarked) [Compound 407]
- % Inhibition of T cell blast formation [3]: 63%

SMILES: O=C(Nc1ccc(C(O)c2ccc(F)cc2F)cc1)C1CC(c2cccnc2)=NO1 (centres unmarked) [Compound 408]
- % Inhibition of T cell blast formation [3]: 71%

SMILES: COc1ccccc1C(O)c1ccc(NC(=O)C2CC(c3cccnc3)=NO2)cc1 (centres unmarked) [Compound 409]
- % Inhibition of T cell blast formation [3]: 88%

SMILES: CC(O)(c1ccccc1)c1ccc(NC(=O)C2CC(c3cccnc3)=NO2)cc1 (centres unmarked) [Compound 411, (A2)-4,5-dihydro-N-[4-(1-hydroxy-1-phenylethyl)phenyl]-3-(3-pyridinyl)-5-isoxazolecarboxamide]
- % Inhibition of T cell blast formation [1]: 77%

SMILES: O=C(Nc1ccc(C(O)c2ccccc2)cc1)[C@@H]1CC(c2cccnc2)=NO1 (some centres unmarked) [Compound 412]
- % Inhibition of T cell blast formation [3]: 79%

SMILES: CC(=O)OCC(C#N)(c1ccccc1)c1ccc(NC(=O)C2CC(c3cccnc3)=NO2)cc1 (centres unmarked) [Compound 413]
- % Inhibition of T cell blast formation [1]: 85%

SMILES: N#CC(OC(=O)c1ccccc1)(c1ccccc1)c1ccc(NC(=O)C2CC(c3cccnc3)=NO2)cc1 (centres unmarked) [Compound 415]
- % Inhibition of T cell blast formation [1]: 65%

SMILES: COCCOC(c1ccccc1)c1ccc(NC(=O)C2CC(c3cccnc3)=NO2)cc1 (centres unmarked) [Compound 416]
- % Inhibition of T cell blast formation [1]: 87%

SMILES: CCCCOC(c1ccccc1)c1ccc(NC(=O)C2CC(c3cccnc3)=NO2)cc1.Cl (centres unmarked) [Compound 417]
- % Inhibition of T cell blast formation [1]: 42%

SMILES: CC(C)OC(c1ccccc1)c1ccc(NC(=O)C2CC(c3cccnc3)=NO2)cc1.Cl (centres unmarked) [Compound 418]
- % Inhibition of T cell blast formation [1]: 75%

SMILES: CN(C)C(=O)c1ccc(CNC(=O)c2ccc(NC(=O)C3CC(c4cccnc4)=NO3)cc2)cc1 (centres unmarked) [Compound 426]
- % Inhibition of T cell blast formation [1]: 82%
- % Inhibition of T cell blast formation [3]: 65%

SMILES: CNC(=O)c1ccc(CNC(=O)c2ccc(NC(=O)C3CC(c4cccnc4)=NO3)cc2)cc1 (centres unmarked) [Compound 427]
- % Inhibition of T cell blast formation [1]: 80%

SMILES: O=C(Nc1ccc(C(=NO)c2ccncc2)cc1)C1CC(c2cccnc2)=NO1 (centres unmarked) [Compound 428]
- % Inhibition of T cell blast formation [4]: 57%

SMILES: O=C(Nc1ccc(C(=NO)c2ccc3c(c2)OCO3)cc1)C1CC(c2cccnc2)=NO1 (centres unmarked) [Compound 429]
- % Inhibition of T cell blast formation [1]: 86%

SMILES: O=C(Nc1ccc(C(=NO)c2cccc(OC(F)(F)F)c2)cc1)C1CC(c2cccnc2)=NO1 (centres unmarked) [Compound 430]
- % Inhibition of T cell blast formation [3]: 67%

SMILES: O=C(Nc1ccc(C(=NO)c2c(F)cccc2F)cc1)C1CC(c2cccnc2)=NO1 (centres unmarked) [Compound 431]
- % Inhibition of T cell blast formation [3]: 71%

SMILES: O=C(Nc1ccc(C(=NO)c2cnc3ccccc3c2)cc1)C1CC(c2cccnc2)=NO1 (centres unmarked) [Compound 432]
- % Inhibition of T cell blast formation [1]: 65%

SMILES: COc1ccccc1C(=NO)c1ccc(NC(=O)C2CC(c3cccnc3)=NO2)cc1 (centres unmarked) [Compound 434]
- % Inhibition of T cell blast formation [4]: 83%

SMILES: O=C(Nc1ccc(C(=NO)c2ccc(F)cc2F)cc1)C1CC(c2cccnc2)=NO1 (centres unmarked) [Compound 435]
- % Inhibition of T cell blast formation [4]: 81%
